Source: PMC5630639 (Scientific Reports, 2017)
Entries after “also recorded” stand apart in the source; their conditions may differ.

Assays:
[1] = test system: MGC-803 cells; assay: CCK-8 proliferation assay, MGC-803; format: cell-based, human; details: Homo sapiens, MGC-803; 48 h, CCK-8, mean ± SD
Procedure: (§1) All synthesized β-lactam-azide derivatives were evaluated for their antiproliferative activity against three cancer cell lines (MGC-803, MCF-7, A549) using CCK-8 proliferation assay. The well-known anticancer drug CA-4P was used as a control[36],[37].
(§2) MGC-803 cell line was obtained from the Chinese Academy of Sciences (Shanghai, China). MCF-7 and A549 were from the National Cell Center, China. MGC-803 cells were cultured in DMEM culture medium (DMEM, Biological Industries, Kibbutz Beit Haemek, Israel). A549 and MCF-7 cells were cultured in 1640 medium (1640, Biological Industries, Kibbutz Beit Haemek, Israel). All medium were supplemented with 10% fetal bovine serum, 100 U/ml penicillin (North China Pharmaceutical group Co.), and 100 µg/ml streptomycin (North China Pharmaceutical group Co.). All cells were cultured at 37 °C in a humidified incubator containing 5% CO2.
(§3) Synthesized analogues used in the study were dissolved in 100% cell culture grade DMSO and the final concentration of DMSO as <0.1% for testing on cancer cell lines. Cytotoxicity assays were performed on the human gastric carcinoma cell line MGC-803, the human mammary carcinoma cell line MCF-7, the human lung carcinoma cell line A549. Cells (3500–5000/well) were seeded into 96-well plates in 100 µL of culture medium. The cells were treated in triplicate with a gradient concentration of testing compounds and incubated at 37 °C, 5% CO2 for 48 h. For all cell lines, CCK-8 assay was performed to measure cytotoxic effects. The absorbance was measured using a microplate reader (BioTek Instrument, Inc. Vermont, USA) with a test wavelength of 450 nm. The absorbance levels were corrected against untreated control absorbance values. All experiments were performed in triplicate and SPSS17.0 was used for data analysis to obtain IC50 values.

[2] = test system: MCF-7 cells; assay: CCK-8 proliferation assay, MCF-7; format: cell-based, human; details: Homo sapiens, MCF7; 48 h, CCK-8, mean ± SD
Procedure: as §1, §2, §3

[3] = test system: interphase microtubules in MGC-803 cells; assay: Immunofluorescence staining of tubulin; format: cell-based, human; details: 24 h
Procedure: As the microtubule system plays a vital role in the maintenance of cell shape and basic cellular functions, an immunofluorescence staining assay was performed to study whether compound 28 could disrupt the microtubule dynamics in living cells.
Cell climbing slices were sterilized and placed on the bottom of a 24-well plate for 24 h before MGC-803 cells were incubated in DMSO, different concentrations of 28 or CA-4P solutions were added. The next day the cell climbing slices were fixed by 4% paraformaldehyde for 15 min after washed by PBS for 3 times. 0.5% Triton-X-100 was added and shaked for 20 min. 0.1% BSA was used to block for 30 min and then removed. The cell climbing slices were added α-tubulin antibody (1:100) and incubated overnight at 4 °C in humid box. On the third day the humid box was taken out and balanced at 37 °C for 30 min. The cell climbing slices were washed by PBST for 3 times for each of 3 minutes and coated with FITC antibody (1:500) in a dark place for 1 h at room temperature. DAPI was used to re-stained for 5 min and then removed. The cell climbing slices were sealing by an anti-fluorescence quenching agent and images collected by Laser scanning confocal microscope (Nikon, Japan).

[4] = test system: MGC-803 cells; assay: Cell scarification assay; format: cell-based, human; details: time-dependent and concentration-dependent
Procedure: In a transwell test, the average numbers of migrated cells in fields of control, 0.1 and 0.2 μM 28 treated MGC-803 cells were 29.4, 22.4 and 16.6, respectively (Fig. 6B and C). Based on the results from these tests, we next examined the protein expression of EMT-related makers such as E-cadherenin, N-cadherenin, ZO-1 and Vementin[55].
MGC-803 cells were seeded in 6-well plate until cells grew to confluence. Tips were used to make a scratch on cells. Control and 28 contained culture media without fetal bovine serum were added subsequently after 3 times of washing by PBS. Then the cells were cultured at 37 °C in a humidified incubator containing 5% CO2 and photos taken at 0, 16, 24 and 48 h, respectively.

[5] = test system: MGC-803 xenograft; assay: MGC-803 xenograft model in nude mice; format: in vivo, BALB/c nude mice; details: for average tumor weight: 21 days (control 1.23 ± 0.28); for mean tumor volume at end of observation period: 21 days (control 1665.98 ± 568.36)
Procedure: To evaluate the potential antitumor effects of 28 in vivo, a MGC-803 xenograft model were established in nude mice by subcutaneously injecting MGC-803 cells at its logarithmic phase into the right flank of mice[56]. Tumor bearing mice were then randomly assigned to five groups (control, 100 mg/kg CA-4P, 25, 50, 100 mg/kg 28) with 10 mice per group. Then, the mice were gavaged with saline (control), CA-4P and different concentrations of 28 in saline solution daily. […] At the end of the observation period, mean tumor volumes of control, CA-4P, 25, 50, and 100 mg/kg 28 groups were 1665.98 ± 568.36 mm^3, 642.61 ± 449.92 mm^3, 788.18 ± 435.92 mm^3, 1125.93 ± 668.25 mm^3 and 1273.88 ± 513.69 mm^3, respectively. […] The antitumor activity of 28 in vivo was similar to that of CA-4P.
Animals were treated according to protocols established by the ethics committee of Zhengzhou University and the in vivo experiments were carried out in accordance with the approved guidelines and approved by the ethics committee of Zhengzhou University. BALB/c nude mice (18 g, aged 4–5 weeks) were purchased from Human SJA Laboratory Animal Co. Ltd. (Hunan, China). Mice were subcutaneously implanted with MGC-803 cells (5 × 10^6 cells per mouse) on the right flank of nude mice. Once tumor volumes reached to approximately 100 mm^3, the mice were randomly divided into corresponding saline, CA-4P (100 mg/kg), 28 (100 mg/kg), 28 (50 mg/kg) and 28 (25 mg/kg) treatment groups (n = 10 mice for each group). The treatment groups received intragastric administration of 28 and CA-4P per day for a period of 21 days. Then, the mice were euthanized and tumors isolated and weighed. Their body weights were measured and tumor sizes determined by vernier caliper measurement every other day.

Which results are given for `COc1cc(N2C(=O)[C@H](c3cccs3)[C@H]2c2cccc(N=[N+]=[N-])c2)cc(OC)c1OC` (relative stereo) [Compound 28, trans-4-(3-azidophenyl)-3-(thiophen-2-yl)-1-(3,4,5-trimethoxyphenyl)azetidin-2-one]?
IC50 [1]: 106 ± 1 nM; IC50 [2]: 421 ± 47 nM; depolymerization of interphase microtubules ([3]; 0.075 μM): moderately depolymerized; depolymerization of interphase microtubules ([3]; 0.3 μM): much stronger; distances of scratches compared to control [4]: obviously increased; inhibitory rate (tumor weight) ([5]; 25 mg/kg, intragastric daily, 21 days): 59.34%; average tumor weight ([5]; 25 mg/kg, intragastric daily): 0.53 ± 0.20 g; mean tumor volume at end of observation period ([5]; 25 mg/kg, intragastric daily): 788.18 ± 435.92 mm^3; inhibitory rate (tumor weight) ([5]; 50 mg/kg, intragastric daily, 21 days): 30.78%; average tumor weight ([5]; 50 mg/kg, intragastric daily): 0.85 ± 0.32 g; mean tumor volume at end of observation period ([5]; 50 mg/kg, intragastric daily): 1125.93 ± 668.25 mm^3; tumor growth ([5]; 100 mg/kg, intragastric daily): considerable suppression of tumor growth; inhibitory rate (tumor weight) ([5]; 100 mg/kg, intragastric daily, 21 days): 10.99%; average tumor weight ([5]; 100 mg/kg, intragastric daily): 1.09 ± 0.31 g; mean tumor volume at end of observation period ([5]; 100 mg/kg, intragastric daily): 1273.88 ± 513.69 mm^3; body weight of mice ([5]; oral administration, 21 days): without causing significant loss of body weight; also recorded: without causing any obvious loss of body weight
